In ChEMBL document CHEMBL1201862, “PubChem BioAssay data set” (2004):
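Cultured in 96-well plates, cells were exposed to test compound for 48 hours across five concentrations. Abbreviation: GI50, concentration required for 50% inhibition of growth.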 Activity calls are given as the source filed them. Cut-off read from the data, not from the text of the source: active = GI50 up to about 1.1 µM and inactive = higher.

Experiments:
Assay in all cases: inhibition of tumour cell growth, NCI panel, 48 h
[1] = tested on: CCRF-CEM
[2] = tested on: DU-145
[3] = tested on: HCT-15
[4] = tested on: HOP-92
[5] = tested on: Hs-578T
[6] = tested on: KM12
[7] = tested on: LOX IMVI
[8] = tested on: MDA-MB-231
[9] = tested on: NCI-H522
[10] = tested on: NCI/ADR-RES
[11] = tested on: OVCAR-8
[12] = tested on: RPMI-8226
[13] = tested on: RXF 393
[14] = tested on: SF-268
[15] = tested on: SF-295
[16] = tested on: SNB-75
[17] = tested on: U-251
[18] = tested on: UACC-62
[19] = tested on: HCC 2998

Row | SMILES | GI50 [1] | GI50 [2] | GI50 [3] [µM] | GI50 [4] | GI50 [5] | GI50 [6] | GI50 [7] | GI50 [8] | GI50 [9] | GI50 [10] | GI50 [11] | GI50 [12] | GI50 [13] | GI50 [14] | GI50 [15] | GI50 [16] | GI50 [17] | GI50 [18] | GI50 [19]
1 | CN(Cc1ccccc1)Cn1ccnc1 | 32.2 µM (inactive) | > 100 µM (inactive) | 59.4 | 25.7 µM (inactive) | > 100 µM (inactive) | > 100 µM (inactive) | > 88.3 µM (inactive) | > 56 µM (inactive) | 89.3 µM (inactive) | > 100 µM (inactive) | > 100 µM (inactive) | 29.2 µM (inactive) | > 100 µM (inactive) | > 100 µM (inactive) | > 82.6 µM (inactive) | > 100 µM (inactive) | > 71 µM (inactive) | > 100 µM (inactive) | 
2 | OCC1OC(n2cnc3c(SCc4ccccc4)ncnc32)C(O)C1O (centres undefined) | 0.169 µM (active) | 5.35 µM (inactive) | 3.25 | 4.75 µM (inactive) |  | > 100 µM (inactive) | 2.13 µM (inactive) | 5.48 µM (inactive) | 17.5 µM (inactive) | 10.2 µM (inactive) | 1.04 µM (active) | 19.4 µM (inactive) | 20.2 µM (inactive) | 21.2 µM (inactive) | > 74.1 µM (inactive) | > 100 µM (inactive) | > 100 µM (inactive) | 98.9 µM (inactive) | 8.24 µM (inactive)
3 | COc1cc(OC)c2c(c1OC)OCC(Cc1ccc(O)cc1)C2=O (centres undefined) | > 25 µM (inactive) | > 25 µM (inactive) | > 25 |  | > 25 µM (inactive) | > 25 µM (inactive) | > 25 µM (inactive) | > 25 µM (inactive) | > 25 µM (inactive) | > 25 µM (inactive) | > 25 µM (inactive) | > 25 µM (inactive) | 20.3 µM (inactive) | > 25 µM (inactive) | > 25 µM (inactive) | > 25 µM (inactive) | > 25 µM (inactive) | > 25 µM (inactive) | 
4 | CC(=O)N(C)CCc1c[nH]c2ccccc12 | > 100 µM (inactive) | > 100 µM (inactive) | > 100 |  | > 100 µM (inactive) | > 100 µM (inactive) | > 100 µM (inactive) | > 100 µM (inactive) | > 100 µM (inactive) | > 100 µM (inactive) | > 100 µM (inactive) | > 100 µM (inactive) |  | > 100 µM (inactive) | > 100 µM (inactive) | > 100 µM (inactive) | > 100 µM (inactive) | > 100 µM (inactive) | 
5 | Cc1nn(C(=O)Cc2ccccc2)c2c1C(c1ccccc1[N+](=O)[O-])SC(=N)N2 (centres undefined) | > 100 µM (inactive) | > 100 µM (inactive) | > 100 |  | > 100 µM (inactive) | > 100 µM (inactive) | > 100 µM (inactive) | > 100 µM (inactive) | > 100 µM (inactive) |  | > 100 µM (inactive) | > 100 µM (inactive) |  | > 100 µM (inactive) | > 100 µM (inactive) | 83.4 µM (inactive) |  | > 100 µM (inactive) | > 100 µM (inactive)
6 | C=CCOCn1ccc(N)nc1=O | > 100 µM (inactive) | > 100 µM (inactive) | > 100 |  | > 100 µM (inactive) | > 100 µM (inactive) | > 100 µM (inactive) | > 100 µM (inactive) | > 100 µM (inactive) |  | > 100 µM (inactive) | > 100 µM (inactive) |  | > 100 µM (inactive) | > 100 µM (inactive) | > 100 µM (inactive) |  | > 100 µM (inactive) | > 100 µM (inactive)
7 | O=C1c2ccccc2C(=O)N1CCc1nc(-c2ccccc2)c[nH]1 | > 100 µM (inactive) | > 100 µM (inactive) | > 100 |  | > 100 µM (inactive) | > 100 µM (inactive) |  | > 100 µM (inactive) | > 100 µM (inactive) | > 100 µM (inactive) | > 100 µM (inactive) |  |  | > 100 µM (inactive) | > 100 µM (inactive) | > 100 µM (inactive) | > 100 µM (inactive) | > 100 µM (inactive) | > 100 µM (inactive)
8 | O=C(O)CSc1n[nH]c(=O)[nH]c1=O | > 100 µM (inactive) | > 100 µM (inactive) | > 100 |  | > 100 µM (inactive) | > 100 µM (inactive) | > 100 µM (inactive) | > 100 µM (inactive) | > 100 µM (inactive) | > 100 µM (inactive) | > 100 µM (inactive) | > 100 µM (inactive) | > 100 µM (inactive) | > 100 µM (inactive) | > 100 µM (inactive) | > 100 µM (inactive) | > 100 µM (inactive) | > 100 µM (inactive) | 
9 | CCOC1=NC(C(F)(F)F)(C(F)(F)F)N=C(N2CCCCC2)O1 | > 100 µM (inactive) | > 100 µM (inactive) | > 100 | > 100 µM (inactive) | > 100 µM (inactive) | > 100 µM (inactive) | > 100 µM (inactive) | > 100 µM (inactive) | > 100 µM (inactive) | > 100 µM (inactive) | > 100 µM (inactive) | > 100 µM (inactive) | > 100 µM (inactive) | > 100 µM (inactive) | > 100 µM (inactive) | > 100 µM (inactive) | > 100 µM (inactive) | > 100 µM (inactive) | 
10 | COc1ccc(Nc2nc3cc(C(F)(F)F)ccc3nc2C(=O)O)cc1 |  | 20.4 µM (inactive) | 16.6 |  | 21.1 µM (inactive) | 24 µM (inactive) | 16.1 µM (inactive) | 31.6 µM (inactive) | 12.4 µM (inactive) | 23.1 µM (inactive) | 19.3 µM (inactive) |  | 11.9 µM (inactive) | 17.6 µM (inactive) | 13 µM (inactive) | 17.6 µM (inactive) | 13 µM (inactive) | 13.6 µM (inactive) | 14.1 µM (inactive)
11 | Cc1ccc(CC(=O)Nc2ccc(NC(=O)/C=C/NC(=O)/C=C/c3ccc(-c4ccccc4)cc3)cc2C(=O)c2ccccc2)cc1 | 2.16 µM (inactive) | 3.94 µM (inactive) | 2.7 |  | 1.73 µM (inactive) | 2.93 µM (inactive) | 2.03 µM (inactive) | 1.87 µM (inactive) |  | 5.41 µM (inactive) | 0.871 µM (active) | 2.4 µM (inactive) | 1.46 µM (inactive) | 2.62 µM (inactive) | 1.36 µM (inactive) | 1.93 µM (inactive) | 1.85 µM (inactive) | 2.16 µM (inactive) | 0.0237 µM (active)
12 | c1ccc(C2(c3cc4ccccc4[nH]3)OCCO2)cc1 | 18.4 µM (inactive) | 65.3 µM (inactive) | 41.6 | 17.3 µM (inactive) |  | 37.8 µM (inactive) | 38 µM (inactive) | > 100 µM (inactive) |  | 67.6 µM (inactive) | 76.2 µM (inactive) | 27.3 µM (inactive) | > 100 µM (inactive) | 47 µM (inactive) | 53.1 µM (inactive) | > 100 µM (inactive) | > 100 µM (inactive) | 38.8 µM (inactive) | 
13 | CCOC(=O)c1nc2ccccc2nc1Oc1cc(OC)cc(OC)c1 | > 100 µM (inactive) | > 100 µM (inactive) | > 100 | 6.81 µM (inactive) | 27.9 µM (inactive) | 76.9 µM (inactive) | > 100 µM (inactive) | > 100 µM (inactive) | 46.7 µM (inactive) | > 100 µM (inactive) | > 100 µM (inactive) | > 100 µM (inactive) | 53.5 µM (inactive) | 76.7 µM (inactive) | > 100 µM (inactive) |  | 78.3 µM (inactive) | > 100 µM (inactive) | 
14 | O=C1OC(OCC#CCOC2OC(=O)C(Cl)=C2Cl)C(Cl)=C1Cl (centres undefined) | 1.92 µM (inactive) | 18.6 µM (inactive) | 5.85 |  | 13.2 µM (inactive) | 18.9 µM (inactive) | 2.65 µM (inactive) |  | 1.7 µM (inactive) | 19.5 µM (inactive) | 4.31 µM (inactive) | 3.57 µM (inactive) |  | 18.2 µM (inactive) | 20.7 µM (inactive) | 12.4 µM (inactive) |  | 14.2 µM (inactive) | 2.8 µM (inactive)
15 | Cc1ccc(-c2nc(Cc3n[nH]c(-c4ccc(C)cc4)n3)n[nH]2)cc1 | > 100 µM (inactive) | > 100 µM (inactive) | > 100 | > 100 µM (inactive) |  | > 100 µM (inactive) | > 100 µM (inactive) | > 100 µM (inactive) | 2.99 µM (inactive) | 29.6 µM (inactive) | 10.3 µM (inactive) | > 100 µM (inactive) | 21.1 µM (inactive) | 6.14 µM (inactive) | > 100 µM (inactive) | 3.2 µM (inactive) | 3.71 µM (inactive) | 4.86 µM (inactive) | > 100 µM (inactive)
16 | O=C1CCc2cc3c(cc21)C(C(=O)O)CC3 (centres undefined) | > 100 µM (inactive) | > 100 µM (inactive) | > 100 |  | > 100 µM (inactive) | > 100 µM (inactive) | > 100 µM (inactive) | > 100 µM (inactive) | > 100 µM (inactive) | > 100 µM (inactive) | > 100 µM (inactive) | > 100 µM (inactive) | 30.8 µM (inactive) | > 100 µM (inactive) | > 100 µM (inactive) | 87.5 µM (inactive) | > 100 µM (inactive) | > 100 µM (inactive) | > 100 µM (inactive)
17 | COc1c(-c2nc3ccc(N4CCN(C)CC4)cc3[nH]2)cc(OC)c2[nH]c(CO)nc12 | 13.3 µM (inactive) | 84.5 µM (inactive) | > 100 | > 100 µM (inactive) | > 100 µM (inactive) | 49.3 µM (inactive) | 88.5 µM (inactive) | 74 µM (inactive) | 65.2 µM (inactive) | > 100 µM (inactive) | > 100 µM (inactive) | > 100 µM (inactive) | > 100 µM (inactive) | > 100 µM (inactive) | > 100 µM (inactive) | 48.3 µM (inactive) | 74.8 µM (inactive) | > 100 µM (inactive) | 
